Reference: patent US7002022B2, “N-Aryl (thio) anthranilic acid amide derivatives, their preparation and their use as VEGF” (Novartis AG, priority 1998, dated 2006)

Tests used:
[1] = biological target: T1, Flt-1 VEGF-receptor tyrosine kinase (Homo sapiens, UniProt P17948); experiment: Test for activity against Flt-1 VEGF-receptor tyrosine kinase; assay type: biochemical; settings: kinase domain of Flt-1, poly(Glu,Tyr) 4:1, 8 μM [33P]-ATP, 10 minutes at room temperature
T1 construct: 10 ng of the kinase domain of Flt-1
T1 sequence (P17948 827-1158 limits assumed): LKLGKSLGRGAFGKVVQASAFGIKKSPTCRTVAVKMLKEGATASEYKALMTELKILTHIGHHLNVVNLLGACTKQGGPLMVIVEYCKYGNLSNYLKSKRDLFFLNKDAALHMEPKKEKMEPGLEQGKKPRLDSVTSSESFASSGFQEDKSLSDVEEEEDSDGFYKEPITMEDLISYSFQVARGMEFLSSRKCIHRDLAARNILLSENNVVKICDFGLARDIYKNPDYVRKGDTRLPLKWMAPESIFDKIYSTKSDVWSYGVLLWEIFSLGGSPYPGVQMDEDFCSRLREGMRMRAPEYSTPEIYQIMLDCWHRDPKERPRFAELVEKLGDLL
Protocol: Test for activity against VEGF-receptor tyrosine kinase. The test is conducted using Flt-1 VEGF-receptor tyrosine kinase. […] The reaction is then terminated by the addition of 10 μl 0.25 M ethylenediaminetetraacetate (EDTA) pH 7. Using a multichannel dispenser (LAB SYSTEMS, USA), an aliquot of 20 μl is applied to a PVDF (=polyvinyl difluoride) Immobilon P membrane (Millipore, USA), through a Millipore microtiter filter manifold and connected to a vacuum. Following complete elimination of the liquid, the membrane is washed 4 times successively in a bath containing 0.5% phosphoric acid (H3PO4) and once with ethanol, incubated for 10 minutes each time while shaking, then mounted in a Hewlett Packard TopCount Manifold and the radioactivity measured after the addition of 10 μl Microscint® (β-scintillation counter liquid).
The test is conducted using Flt-1 VEGF-receptor tyrosine kinase, as described hereinabove.

| melting point [°C] | IC50 [1] [nM] | SMILES |
| --- | --- | --- |
| 157 to 158 |  | CC(=O)Nc1cccc(NC(=O)c2ccccc2NCc2ccncc2)c1 [Example 18, 2-[(4-Pyridyl)methyl]amino-N-(3-acetylaminophenyl)benzamide] |
| 143 |  | Cc1ccccc1NC(=O)c1ccccc1NCc1ccncc1 [Example 70, 2-[(4-pyridyl)methyl]amino-N-(2-methylphenyl)benzamide] |
| 195 to 203 |  | NC(=O)c1cccc(NC(=O)c2ccccc2NCc2ccncc2)c1 [Example 32, 2-[(4-Pyridyl)methyl]amino-N-[3-(aminocarbonyl)phenyl]benzamide] |
| 143 |  | Cc1ccc(NC(=O)c2ccccc2NCc2ccncc2)cc1Cl [Example 69, 2-[(4-pyridyl)methyl]amino-N-(3-chloro-4-methylphenyl)benzamide] |
| 160 to 161 |  | O=C(Nc1ccccc1)c1ccccc1NCc1ccncc1 [Example 3, 2-[(4-Pyridyl)methyl]amino-N-phenylbenzamide] |
| 131 to 133 |  | O=C(Nc1cccc(Cl)c1)c1ccccc1NCc1ccncc1 [Example 28, 2-[(4-Pyridyl)methyl]amino-N-(3-chlorophenyl)benzamide] |
|  | 260 | Cc1ccc(NC(=O)c2ccccc2NCc2ccncc2)cc1 [Example 5, 2-[(4-Pyridyl)methyl]amino-N-(4-methylphenyl)benzamide] |
| 235 |  | O=C(Nc1ccc2cccc(O)c2c1)c1ccccc1NCc1ccncc1 [Example 54, 2-[(4-pyridyl)methyl]amino-N-(8-hydroxy-2-naphthyl)benzamide] |
| 200 to 202 |  | NC(=O)Nc1cccc(NC(=O)c2ccccc2NCc2ccncc2)c1 [Example 19, 2-[(4-Pyridyl)methyl]amino-N-[3-[(aminocarbonyl)amino]phenyl]benzamide] |
| 152 to 154 |  | CN(C)c1cccc(NC(=O)c2ccccc2NCc2ccncc2)c1 [Example 20, 2-[(4-Pyridyl)methyl]amino-N-[3-(dimethylamino)phenyl]benzamide] |
| 157 to 160 |  | N#Cc1cccc(NC(=O)c2ccccc2NCc2ccncc2)c1 [Example 16, 2-[(4-Pyridyl)methyl]amino-N-(3-cyanophenyl)benzamide] |
| 144 to 147 |  | CC(C)(C)c1cccc(NC(=O)c2ccccc2NCc2ccncc2)c1 [Example 15, 2-[(4-Pyridyl)methyl]amino-N-[3-(1,1-dimethylethyl)phenyl]benzamide] |
| 139 to 140 |  | Cc1cccc(NC(=O)c2ccccc2NCc2ccncc2)c1 [Example 30, 2-[(4-Pyridyl)methyl]amino-N-(3-methylphenyl)benzamide] |
| 156 to 159 |  | O=C(Nc1cccc(Br)c1)c1ccccc1NCc1ccncc1 [Example 29, 2-[(4-Pyridyl)methyl]amino-N-(3-bromophenyl)benzamide] |

The remaining lines, values behind:

| SMILES | melting point [°C] | IC50 [1] [nM] |
| --- | --- | --- |
| O=C(Nc1ccc(Cl)cc1)c1ccccc1NCc1ccnc2ccccc12 [Example 39, 2-[(4-Quinolinyl)methyl]amino-N-(4chlorophenyl)benzamide] | 178 to 209 |  |
| O=C(Nc1ccc(Cl)cc1)c1cc(Cl)ccc1NCc1ccncc1 [Example 59, 5-chloro-2-[(4-pyridyl)methyl]amino-N-(4-chlorophenyl)benzamide] | 206 to 207 |  |
| O=C(Nc1ccc(F)c(C(F)(F)F)c1)c1ccccc1NCc1ccncc1 [Example 9, 2-[(4-Pyridyl)methyl]amino-N-[4-fluoro-3-(trifluoromethyl)phenyl]benzamide] | 183 to 185 |  |
| O=C(Nc1cccc(C(F)(F)F)c1)c1ccccc1NCc1ccnc2ccccc12 [Example 35, 2-[(4-Quinolinyl)methyl]amino-N-[3-(trifluoromethyl)phenyl]benzamide] | 191 to 193 |  |
| Cc1ccc(NCc2ccncc2)c(C(=O)Nc2ccc(Cl)cc2)c1 [Example 56, 5-methyl-2-[(4-pyridyl)methyl]amino-N-(4-chlorophenyl)benzamide] | 127 |  |
| COc1cc(NC(=O)c2ccccc2NCc2ccncc2)cc2ccccc12 [Example 64, 2-[(4-pyridyl)methyl]amino-N-(4-methoxy-2-naphthyl)benzamide] | 152 to 154 |  |
| O=C(Nc1cc(F)cc(C(F)(F)F)c1)c1ccccc1NCc1ccncc1 [Example 10, 2-[(4-Pyridyl)methyl]amino-N-[3-fluoro-5-(trifluoromethyl)phenyl]benzamide] | 196 to 197 |  |
| CC(C)OC(=O)c1ccc(NC(=O)c2ccccc2NCc2ccncc2)cc1 [Example 66, 2-[(4-pyridyl)methyl]amino-N-[4-(isopropoxycarbonyl)phenyl]benzamide] | 70 |  |
| O=C(Nc1cccc(C(F)(F)F)c1)c1ccccc1NCc1cccnc1 [Example 34, 2-[(3-Pyridyl)methyl]amino-N-[3-(trifluoromethyl)phenyl]benzamide] | 140 to 142 |  |
| Cc1ccc(NC(=O)c2c(C)cccc2NCc2ccncc2)cc1 [Example 33, 2-[(4-Pyridyl)methyl]amino-N-(4-methylphenyl)-6-methylbenzamide] | 162 to 163 |  |
| O=C(Nc1cc2ccccc2cc1Br)c1ccccc1NCc1ccncc1 [Example 65, 2-[(4-pyridyl)methyl]amino-N-(3-bromo-2-naphthyl)benzamide] | 130 to 132 |  |
| CN(C(=O)c1ccccc1NCc1ccncc1)c1cccc(C(F)(F)F)c1 [Example 24, 2-[(4-Pyridyl)methyl]amino-N-methyl-N-[3-(trifluoromethyl)phenyl]benzamide] | 127 to 128 |  |
| O=C(Nc1ccc(Cl)cc1)c1ccccc1NCc1ncc[nH]1 [Example 40, 2-[(2-Imidazolyl)methyl]amino-N-(4chlorophenyl)benzamide] | 181 to 184 |  |
| O=C(Nc1cc(Cl)cc(C(F)(F)F)c1)c1ccccc1NCc1ccncc1 [Example 8, 2-[(4-Pyridyl)methyl]amino-N-[3-chloro-5-(trifluoromethyl)phenyl]benzamide] | 190 to 194 |  |
| O=C(Nc1ccc(Cl)c(C(F)(F)F)c1)c1ccccc1NCc1ccncc1 [Example 7, 2-[(4-Pyridyl)methyl]amino-N-[4-chloro-3-(trifluoromethyl)phenyl]benzamide] | 162 to 172 | 560 |
| O=C(Nc1cccc(C(F)(F)F)c1)c1ccccc1NCc1cccc2ncccc12 [Example 36, 2-[(5-Quinolinyl)methyl]amino-N-[3-(trifluoromethyl)phenyl]benzamide] | 176 to 178 |  |
| O=C(Nc1ccc(Cl)cc1)c1ccc(Cl)cc1NCc1ccncc1 [Example 55, 4-chloro-2-[(4-pyridyl)methyl]amino-N-(4-chlorophenyl)benzamide] | 186 |  |
| O=C(Nc1ccc(Cl)cc1)c1c(Cl)cccc1NCc1ccncc1 [Example 48, 6-chloro-2-[(4-pyridyl)methyl]amino-N-(4-chlorophenyl)benzamide] | 183 to 185 |  |
| CC(C)(C)c1ccc(NC(=O)c2ccccc2NCc2ccncc2)cc1 [Example 27, 2-[(4-Pyridyl)methyl]amino-N-[4-(1,1-dimethylethyl)phenyl]benzamide] | 168 to 170 |  |
| COc1ccc(NCc2ccncc2)c(C(=O)Nc2cccc(C(F)(F)F)c2)c1 [Example 21, 5-Methoxy-2-[(4-pyridyl)methyl]amino-N-[3-(trifluoromethyl)phenyl]benzamide] | 175 to 178 |  |
| CC(C)NC(=O)c1ccc(NC(=O)c2ccccc2NCc2ccncc2)cc1 [Example 68, 2-[(4-pyridyl)methyl]amino-N-[4-(isopropylcarbamoyl)phenyl]benzamide] | 79 |  |
| COc1cc(NC(=O)c2ccccc2NCc2ccncc2)cc(C(F)(F)F)c1 [Example 13, 2-[(4-Pyridyl)methyl]amino-N-[3-methoxy-5-(trifluoromethyl)phenyl]benzamide] | 134 to 136 |  |
| Cc1cccc(NCc2ccncc2)c1C(=O)Nc1ccc(Cl)cc1 [Example 47, 6-methyl-2-[(4-pyridyl)methyl]amino-N-(4-chlorophenyl)benzamide] | 190 |  |
| O=C(Nc1cccc(C(F)(F)F)c1)c1cc(F)c(F)cc1NCc1ccncc1 [Example 23, 4,5-Difluoro-2-[(4-pyridyl)methyl]amino-N-[3-(trifluoromethyl)phenyl]benzamide] | 175 to 178 |  |
| O=C(Nc1cccc(C(F)(F)F)c1)c1ccccc1NCCc1cccnc1 [Example 42, 2-[2-(3-Pyridyl)ethyl]amino-N-[3-(trifluoromethyl)phenyl]benzamide] | 102 to 103 |  |
